Reference: patent publication US7858637B2, “Administration of TLR7 ligands and prodrugs thereof for treatment of infection by hepatitis C virus” (priority 2003, dated 2010)
Several values for one entry are separate records, joined by “and”; a condition that tells them apart may be missing. Equal values may be shown once. Entries after “also recorded” stand apart in the source; their conditions may differ.

Tests used:
human TLR7 = molecular target: T1, human TLR7 (Homo sapiens, UniProt Q9NYK1); assay: HEK293-hTLR7 NF-kB luciferase reporter (C23) assay; details: read-out: mean fold induction of luciferase activity compared to the no drug control
T1 sequence (Q9NYK1 27-1049): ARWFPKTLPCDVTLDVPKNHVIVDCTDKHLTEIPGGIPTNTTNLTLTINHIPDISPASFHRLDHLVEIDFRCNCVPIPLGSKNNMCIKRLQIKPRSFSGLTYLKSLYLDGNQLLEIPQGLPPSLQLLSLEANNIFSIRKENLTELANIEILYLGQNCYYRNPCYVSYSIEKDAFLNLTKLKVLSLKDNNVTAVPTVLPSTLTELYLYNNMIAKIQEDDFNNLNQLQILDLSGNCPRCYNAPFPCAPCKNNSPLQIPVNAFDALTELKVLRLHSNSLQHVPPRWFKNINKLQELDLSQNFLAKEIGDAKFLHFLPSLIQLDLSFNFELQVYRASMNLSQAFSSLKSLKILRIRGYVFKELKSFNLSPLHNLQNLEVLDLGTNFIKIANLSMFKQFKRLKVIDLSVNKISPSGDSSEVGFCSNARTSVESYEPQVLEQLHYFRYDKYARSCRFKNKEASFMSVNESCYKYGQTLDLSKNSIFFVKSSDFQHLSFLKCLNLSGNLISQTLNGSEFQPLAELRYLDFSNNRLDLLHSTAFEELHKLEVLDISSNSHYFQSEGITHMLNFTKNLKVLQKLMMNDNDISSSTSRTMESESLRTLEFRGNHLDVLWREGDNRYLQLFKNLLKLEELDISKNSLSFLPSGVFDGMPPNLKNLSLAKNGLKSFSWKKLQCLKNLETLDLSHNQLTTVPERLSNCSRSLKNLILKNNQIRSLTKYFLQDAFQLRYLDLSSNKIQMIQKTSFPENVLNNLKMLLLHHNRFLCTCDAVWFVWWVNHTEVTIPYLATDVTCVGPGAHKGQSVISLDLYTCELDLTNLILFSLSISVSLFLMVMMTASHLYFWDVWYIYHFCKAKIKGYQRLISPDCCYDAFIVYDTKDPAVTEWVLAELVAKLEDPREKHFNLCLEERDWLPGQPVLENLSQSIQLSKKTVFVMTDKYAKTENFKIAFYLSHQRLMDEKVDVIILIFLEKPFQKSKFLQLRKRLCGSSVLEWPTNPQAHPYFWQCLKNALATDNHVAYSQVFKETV
Procedure: A stable HEK293-hTLR7 cell line was obtained from Invivogen (San Diego, Calif.), transfected with pNiFty2-Luc, an NF-kB inducible luciferase reporter plasmid (Invivogen) and (dual) stable transfectants selected. The resultant dual (hTLR7/pNiFty2-Luc) cell lines were functionally tested by response to loxoribine and isatoribine as measured by fold luciferase induction relative to a no drug control. […] See, e.g., Hemmi H. et al., Nat.
For a typical C23 assay, cells are seeded at 6×10^4 cells/well in 96 well plates and 4-24 hours later are treated with various concentrations of compound. After 2-48 hours exposure the cell monolayers are lyzed with passive lysis buffer (Promega) and the firefly luciferase assay carried out using the luciferase assay reagent (Promega) as specified by the manufacturer. Relative luciferase activities are expressed as folds of induction compared to the no drug control. A two-fold induction over background is considered a bona fide TLR7 agonist, dependent on this being a statistically significant increase.
In Table 1, isatoribine, was added to C23 cells for forty-eight hours, and the cells were then harvested and assayed for luciferase activity. Each time-point was assayed in triplicate.
Each time-point was assayed in triplicate.

interferon alpha = assay: Interferon alpha plasma concentrations in mice; type: in vivo, mouse; details: for Mu-IFN-α plasma concentration, individual value / Mu-IFN-α plasma concentration, mean: mice
Excerpt: Not only can one measure the plasma concentrations of isatoribine arising from oral administration of the said prodrug(s) but also the extensive immunological research conducted in the mouse has provided reagents suitable for measuring the levels of interferon alpha, a cytokine of interest reflecting one of the desired biologic activities of isatoribine.

[1] = one vehicle dose, one oral 50 mg/kg dose 4 hours later, time 4.03 h (second dose)
[2] = one vehicle dose, one oral 50 mg/kg dose 4 hours later, time 4.08 h (second dose)
[3] = one vehicle dose, one oral 50 mg/kg dose 4 hours later, time 4.25 h (second dose)
[4] = one vehicle dose, one oral 50 mg/kg dose 4 hours later, time 8.00 h (second dose)
[5] = two oral 50 mg/kg doses 4 hours apart, time 0.08 h (first dose)
[6] = two oral 50 mg/kg doses 4 hours apart, time 0.50 h (first dose)
[7] = two oral 50 mg/kg doses 4 hours apart, time 1.00 h (first dose)
[8] = two oral 50 mg/kg doses 4 hours apart, time 3.00 h (first dose)
[9] = two oral 50 mg/kg doses 4 hours apart, time 4.00 h (first dose)
[10] = two oral 50 mg/kg doses 4 hours apart, time 4.03 h (second dose)
[11] = two oral 50 mg/kg doses 4 hours apart, time 4.08 h (second dose)
[12] = two oral 50 mg/kg doses 4 hours apart, time 4.25 h (second dose)
[13] = two oral 50 mg/kg doses 4 hours apart, time 5.00 h (second dose)
[14] = two oral 50 mg/kg doses 4 hours apart, time 5.50 h (second dose)
[15] = two oral 50 mg/kg doses 4 hours apart, time 7.00 h (second dose)
[16] = oral dosing, data of Tables 15, 16 and 17

Nc1nc2c(sc(=O)n2[C@@H]2O[C@H](CO)[C@@H](O)[C@H]2O)c(=O)[nH]1 [Compound 21, 7-thia-8-oxoguanosine]
fold induction at 50 µM (human TLR7): 3.1 | fold induction at 100 µM (human TLR7): 3.4 | fold induction at 250 µM (human TLR7): 6.2 | fold induction at 500 µM (human TLR7): 10.9 | Mu-IFN-α plasma concentration, individual value (interferon alpha; [1]): BQL^25 pg/mL | Mu-IFN-α plasma concentration, mean (interferon alpha; [1]): 0.00 pg/mL | Mu-IFN-α plasma concentration, individual value (interferon alpha; [2]): BQL^25 pg/mL | Mu-IFN-α plasma concentration, mean (interferon alpha; [2]): 0.00 pg/mL | Mu-IFN-α plasma concentration, individual value (interferon alpha; [3]): BQL^25 pg/mL | Mu-IFN-α plasma concentration, mean (interferon alpha; [3]): 0.00 pg/mL | Mu-IFN-α plasma concentration, mean (interferon alpha; one vehicle dose, one oral 50 mg/kg dose 4 hours later, time 4.50 h (second dose)): 44.4 pg/mL | Mu-IFN-α plasma concentration, individual value (interferon alpha; one vehicle dose, one oral 50 mg/kg dose 4 hours later, time 4.50 h (second dose), listed as Isatoribine, 50 mg/kg): BQL^100 pg/mL and BQL^25 pg/mL and 133.2 pg/mL | Mu-IFN-α plasma concentration, mean (interferon alpha; one vehicle dose, one oral 50 mg/kg dose 4 hours later, time 5.00 h (second dose)): 37.5 pg/mL | Mu-IFN-α plasma concentration, individual value (interferon alpha; one vehicle dose, one oral 50 mg/kg dose 4 hours later, time 5.00 h (second dose), listed as Isatoribine, 50 mg/kg): 74.9 pg/mL and BQL^50 pg/mL | Mu-IFN-α plasma concentration, mean (interferon alpha; one vehicle dose, one oral 50 mg/kg dose 4 hours later, time 5.50 h (second dose)): 0.00 pg/mL | Mu-IFN-α plasma concentration, individual value (interferon alpha; one vehicle dose, one oral 50 mg/kg dose 4 hours later, time 5.50 h (second dose), listed as Isatoribine, 50 mg/kg): BQL^250 pg/mL; also recorded: BQL^75 pg/mL; also recorded: BQL^25 pg/mL | Mu-IFN-α plasma concentration, mean (interferon alpha; one vehicle dose, one oral 50 mg/kg dose 4 hours later, time 6.00 h (second dose)): 0.00 pg/mL | Mu-IFN-α plasma concentration, individual value (interferon alpha; one vehicle dose, one oral 50 mg/kg dose 4 hours later, time 6.00 h (second dose), listed as Isatoribine, 50 mg/kg): BQL^25 pg/mL; also recorded: BQL^75 pg/mL | Mu-IFN-α plasma concentration, mean (interferon alpha; one vehicle dose, one oral 50 mg/kg dose 4 hours later, time 7.00 h (second dose)): 0.00 pg/mL | Mu-IFN-α plasma concentration, individual value (interferon alpha; one vehicle dose, one oral 50 mg/kg dose 4 hours later, time 7.00 h (second dose), listed as Isatoribine, 50 mg/kg): BQL^50 pg/mL; also recorded: BQL^25 pg/mL | Mu-IFN-α plasma concentration, individual value (interferon alpha; [4]): BQL^25 pg/mL | Mu-IFN-α plasma concentration, mean (interferon alpha; [4]): 0.00 pg/mL | Mu-IFN-α plasma concentration, mean (interferon alpha; two oral 50 mg/kg doses 4 hours apart, time 0.00 h (first dose)): 0.00 pg/mL | Mu-IFN-α plasma concentration, individual value (interferon alpha; two oral 50 mg/kg doses 4 hours apart, time 0.00 h (first dose), listed as Isatoribine, 50 mg/kg): BQL^50 pg/mL; also recorded: BQL^125 pg/mL | Mu-IFN-α plasma concentration, mean (interferon alpha; two oral 50 mg/kg doses 4 hours apart, time 0.03 h (first dose)): 0.00 pg/mL | Mu-IFN-α plasma concentration, individual value (interferon alpha; two oral 50 mg/kg doses 4 hours apart, time 0.03 h (first dose), listed as Isatoribine, 50 mg/kg): BQL^25 pg/mL; also recorded: BQL^250 pg/mL | Mu-IFN-α plasma concentration, individual value (interferon alpha; [5]): BQL^25 pg/mL | Mu-IFN-α plasma concentration, mean (interferon alpha; [5]): 0.00 pg/mL | Mu-IFN-α plasma concentration, mean (interferon alpha; two oral 50 mg/kg doses 4 hours apart, time 0.25 h (first dose)): 0.00 pg/mL | Mu-IFN-α plasma concentration, individual value (interferon alpha; two oral 50 mg/kg doses 4 hours apart, time 0.25 h (first dose), listed as Isatoribine, 50 mg/kg): BQL^50 pg/mL; also recorded: BQL^25 pg/mL | Mu-IFN-α plasma concentration, individual value (interferon alpha; [6]): BQL^25 pg/mL | Mu-IFN-α plasma concentration, mean (interferon alpha; [6]): 0.00 pg/mL | Mu-IFN-α plasma concentration, individual value (interferon alpha; [7]): BQL^25 pg/mL | Mu-IFN-α plasma concentration, mean (interferon alpha; [7]): 0.00 pg/mL | Mu-IFN-α plasma concentration, mean (interferon alpha; two oral 50 mg/kg doses 4 hours apart, time 1.50 h (first dose)): 0.00 pg/mL | Mu-IFN-α plasma concentration, individual value (interferon alpha; two oral 50 mg/kg doses 4 hours apart, time 1.50 h (first dose), listed as Isatoribine, 50 mg/kg): BQL^100 pg/mL; also recorded: BQL^25 pg/mL | Mu-IFN-α plasma concentration, mean (interferon alpha; two oral 50 mg/kg doses 4 hours apart, time 2.00 h (first dose)): 0.00 pg/mL | Mu-IFN-α plasma concentration, individual value (interferon alpha; two oral 50 mg/kg doses 4 hours apart, time 2.00 h (first dose), listed as Isatoribine, 50 mg/kg): BQL^25 pg/mL; also recorded: BQL^75 pg/mL | Mu-IFN-α plasma concentration, individual value (interferon alpha; [8]): BQL^25 pg/mL | Mu-IFN-α plasma concentration, mean (interferon alpha; [8]): 0.00 pg/mL | Mu-IFN-α plasma concentration, individual value (interferon alpha; [9]): BQL^25 pg/mL | Mu-IFN-α plasma concentration, mean (interferon alpha; [9]): 0.00 pg/mL | Mu-IFN-α plasma concentration, individual value (interferon alpha; [10]): BQL^25 pg/mL | Mu-IFN-α plasma concentration, mean (interferon alpha; [10]): 0.00 pg/mL | Mu-IFN-α plasma concentration, individual value (interferon alpha; [11]): BQL^25 pg/mL | Mu-IFN-α plasma concentration, mean (interferon alpha; [11]): 0.00 pg/mL | Mu-IFN-α plasma concentration, individual value (interferon alpha; [12]): BQL^25 pg/mL | Mu-IFN-α plasma concentration, mean (interferon alpha; [12]): 0.00 pg/mL | Mu-IFN-α plasma concentration, mean (interferon alpha; two oral 50 mg/kg doses 4 hours apart, time 4.50 h (second dose)): 0.00 pg/mL | Mu-IFN-α plasma concentration, individual value (interferon alpha; two oral 50 mg/kg doses 4 hours apart, time 4.50 h (second dose), listed as Isatoribine, 50 mg/kg): BQL^50 pg/mL; also recorded: BQL^37.5 pg/mL | Mu-IFN-α plasma concentration, individual value (interferon alpha; [13]): BQL^50 pg/mL | Mu-IFN-α plasma concentration, mean (interferon alpha; [13]): 0.00 pg/mL | Mu-IFN-α plasma concentration, individual value (interferon alpha; [14]): BQL^37.5 pg/mL | Mu-IFN-α plasma concentration, mean (interferon alpha; [14]): 0.00 pg/mL | Mu-IFN-α plasma concentration, mean (interferon alpha; two oral 50 mg/kg doses 4 hours apart, time 6.00 h (second dose)): 0.00 pg/mL | Mu-IFN-α plasma concentration, individual value (interferon alpha; two oral 50 mg/kg doses 4 hours apart, time 6.00 h (second dose), listed as Isatoribine, 50 mg/kg): BQL^50 pg/mL; also recorded: BQL^41.3 pg/mL; also recorded: BQL^37.5 pg/mL | Mu-IFN-α plasma concentration, individual value (interferon alpha; [15]): BQL^50 pg/mL | Mu-IFN-α plasma concentration, mean (interferon alpha; [15]): 0.00 pg/mL | Mu-IFN-α plasma concentration, mean (interferon alpha; two oral 50 mg/kg doses 4 hours apart, time 8.00 h (second dose)): 0.00 pg/mL | Mu-IFN-α plasma concentration, individual value (interferon alpha; two oral 50 mg/kg doses 4 hours apart, time 8.00 h (second dose), listed as Isatoribine, 50 mg/kg): BQL^50 pg/mL; also recorded: BQL^25 pg/mL | mice with detectable interferon in their plasma (interferon alpha; [16]): 4 of the 114 | proportion of mice exhibiting an interferon response (interferon alpha; [16]): 4%
